Laboratory results from PubChem BioAssay AID1421 (Emory University Molecular Libraries Screening Center, 2008).
Activity calls are given as the source filed them. The rule behind the calls is not given here.

Molecular target: Prostaglandin E2 receptor EP2 subtype (Homo sapiens) (UniProt P43116)
Assay: compounds shifting PGE2 potency at EP2 – cell-based, human EP2, PGE2 EC50 shift, dose response (AID 1421)
Settings: EP2-expressing cells, PGE2 EC50 shift by compound

Sequence of Prostaglandin E2 receptor EP2 subtype (Homo sapiens) (P43116 whole entry, looked up): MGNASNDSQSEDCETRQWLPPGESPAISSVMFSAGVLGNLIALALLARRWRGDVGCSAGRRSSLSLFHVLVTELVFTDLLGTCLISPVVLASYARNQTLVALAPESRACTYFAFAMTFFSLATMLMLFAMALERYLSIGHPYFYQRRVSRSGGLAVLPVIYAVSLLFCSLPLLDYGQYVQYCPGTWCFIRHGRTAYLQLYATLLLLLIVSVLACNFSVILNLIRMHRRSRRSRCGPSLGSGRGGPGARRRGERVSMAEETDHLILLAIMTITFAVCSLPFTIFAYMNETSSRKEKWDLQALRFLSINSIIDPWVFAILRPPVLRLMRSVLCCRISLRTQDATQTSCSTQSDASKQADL

| Compound | outcome |
| --- | --- |
| CC1CCCC(C)N1C(=O)c1ccccc1Nc1ccc(SC(F)F)cc1 (stereo not given) | active |
| O=C(N/N=C/c1cccc(F)c1)NC1CCCCC1 | active |
| CCCOc1ccc(Cl)cc1CNc1ccccc1 | active |
| CCOC(=O)c1c(NC(=O)c2ccco2)sc2c1CCCCC2 | active |
| Cc1cc(C#N)c(SCC(N)=O)nc1-c1ccc(F)cc1 | active |
| OC(Cc1ccccc1)(Cc1ccccc1)c1ccccc1 | active |
| Cn1nc(-c2ccccc2)c(-c2nc(-c3cccc(C(F)(F)F)c3)no2)c1Cl | active |
| CCOP(=S)(OCC)Oc1nc(Cl)c(Cl)cc1Cl | active |
| CCn1c2c(c3cc(OCC(C)C)ccc31)CCCC2=O | active |
| Cc1noc(C)c1CSc1ncnc2sc3c(c12)CCC3 | active |

Same assay, conditions: EP2-expressing cells, PGE2 EC50 shift by compound; measured here: PGE2 EC50 at 6.7 uM compound

| Compound | PGE2 EC50 with compound [nM] |
| --- | --- |
| CCOC(=O)c1c(NC(=O)c2ccc(Br)o2)sc(C)c1CC | 0.94 |
| CCc1ccccc1NC(=S)N(Cc1ccco1)C(C)c1cccs1 (stereo not given) | 0.9 |
| CC(C)Oc1ccc(/C=C(/NC(=O)c2ccccc2)C(=O)NCCC(=O)O)cc1 | 0.92 |
| CC1CCCC(C)N1C(=O)c1ccccc1Nc1ccc(SC(F)F)cc1 (stereo not given) | 1.05 |
| Cc1cc2ccc(C)c(C)c2nc1SCC#N | 1.18 |
| O=C(COc1ccc(Br)cc1)Nc1ccc(-c2nnc(-c3ccco3)o2)cc1 | 0.9 |
| Cc1onc(-c2ccccc2)c1C(=O)N(Cc1ccco1)Cc1cccs1 | 0.34 |
| Cc1ccc(S(=O)(=O)c2c(C)cc(C)nc2N2CCCCC2)cc1 | 1.31 |
| O=c1c2ccccc2c(-c2ccccc2)nn1-c1ccc(Cl)c(Cl)c1 | 1.42 |
| FC(F)(F)c1nnc(-c2ccccc2)nc1Sc1ccccc1 | 0.91 |
| CCCOc1ccccc1Cn1c(=O)oc2ccc(C)cc21 | 2.64 |
| CCOC(=O)c1ccccc1NC(=O)CSc1ncc(C(=O)OCC)c(N)n1 | 0.96 |
| CSc1nnc(-c2ccc(F)cc2)o1 | 1.71 |
| Cc1cc(O)c(C=O)c2c1C(=O)Oc1c(COC(=O)/C=C/C(=O)O)c(O)c(C(=O)O)c(C)c1O2 | 0.54 |
| CCOC(=O)CSc1nc(Cc2ccccc2)nc2ccccc12 | 1.15 |
| COCC(=O)N(C)c1nnc(-c2cnc(C)cn2)s1 | 1.36 |
| CCOP(=O)(OCC)c1nc(-c2ccc(Cl)cc2Cl)oc1N1CCCCC1 | 1.42 |
| O=C(Nc1cccc(Cl)c1N1CCCCC1)c1ccc2c(c1)OCCO2 | 0.64 |
| Cc1ccc(S(=O)(=O)NCC(=O)N(c2ccccc2)C(C(=O)NCc2ccccc2)c2ccco2)cc1 (stereo not given) | 1 |
| Cc1ccccc1S(=O)(=O)c1c(C)cc(C)n(CC(C)C)c1=O | 2.47 |
| CCSc1nnc(-c2ccc(Cl)cc2)c2ccccc12 | 0.76 |
| O=S1(=O)CCN(Cc2cccc(Cl)c2)CC1 | 1.39 |
| CCCCn1c(-c2csc3c2CCCC3)n[nH]c1=S | 1.25 |
| CCOC(=O)c1c(CC(C)C)csc1/N=C/C1C(=O)CCCC1=O | 1 |
| CCCc1cc(=O)n2[nH]c(NCc3cccs3)nc2n1 | 2.54 |
| CCOc1ccccc1C(=O)Nc1ccccc1-c1ccccc1 | 1.34 |
| CCOC(=O)C1=C(C)N(C)C(C)=C(C(=O)OCC)C1c1ccsc1 | 0.79 |

| Compound | PGE2 EC50 with compound [nM] |
| --- | --- |
| O=C(Cc1ccccc1)Nc1ccccc1N1CCN(c2ccccc2)CC1 | 0.95 |
| COc1ccc(C(=O)/C(=C/O)N=Nc2ccc(F)cc2)cc1 | 1 |
| CCOc1cc(/C=N/NC(N)=O)ccc1OC(=O)c1ccc(C)cc1 | 1.52 |
| O=C(N/N=C/c1cccc(F)c1)NC1CCCCC1 | 1.1 |
| CCCCCn1c(SCCC(C)C)nc2c1c(=O)[nH]c(=O)n2C | 1.21 |
| COc1ccc2cc(CN(Cc3ccco3)C(c3nnnn3C3CCCCC3)C(C)C)c(=O)[nH]c2c1 (stereo not given) | 0.76 |
| O=c1c2ccccc2n(Cc2ccc(Cl)cc2)c(=O)n1Cc1ccco1 | 0.82 |
| S=c1[nH]nc(-c2ccc(Br)o2)n1Cc1ccccc1 | 1.34 |
| CCCCc1nc2sc3c(SCC(=O)NCc4ccco4)ncnc3c2c2c1CCC2 | 2.5 |
| Cc1ccc(Cl)cc1NC1=NC(=S)N(C(C)C)C12CCCCC2 | 0.77 |
| CCCOc1ccc(Cl)cc1CNc1ccccc1 | 1.22 |
| CS(=O)(=O)N(Cc1ccccc1)c1ccccc1C(=O)Nc1ccccc1C(=O)NCc1ccco1 | 3.04 |
| CCOC(=O)c1c(NC(=O)c2ccco2)sc2c1CCCCC2 | 0.87 |
| Cc1cc(C#N)c(SCC(N)=O)nc1-c1ccc(F)cc1 | 1.4 |
| CC1(C)Cc2c(C#N)c(N3CCCC3)nc(-c3ccco3)c2CO1 | 2.33 |
| Nc1nc(Cc2ccccc2)nc(Cc2ccccc2)c1-c1ccccc1 | 0.79 |
| CCOC(=O)c1c(NC(=O)COC(=O)Cn2c(C)nc3ccccc32)sc2c1CCCC2 | 1.02 |
| C=C(C)Cn1c(C)cc(C)c(S(=O)(=O)c2ccc(C)cc2)c1=O | 1.04 |
| FC(F)(F)c1cccc(-c2cc3ccccc3nc2N2CCCC2)c1 | 1.36 |
| OC(Cc1ccccc1)(Cc1ccccc1)c1ccccc1 | 1.02 |
| CC1(C)CC2CC(C)(CN2c2ncnc3ccc(Br)cc23)C1 (stereo not given) | 1.52 |
| C=CCSc1ncnc2sc(C)c(C)c12 | 1.3 |
| O=C1CCCc2ccccc2N1Cc1c(Cl)cccc1Cl | 1.04 |
| CCOCC(=O)Nc1cc(C(F)(F)F)ccc1Oc1cccc(Br)c1 | 0.49 |
| CC(C)=CCC/C(C)=C/CC/C(C)=C/CSc1ccccc1C(=O)O | 0.69 |
| CCCn1cnc2sc(CC)cc2c1=O | 1.25 |
| COc1cc(C=O)ccc1OC(=O)c1ccc(C(C)C)cc1 | 1.44 |

| Compound | PGE2 EC50 with compound [nM] |
| --- | --- |
| Cn1nc(-c2ccccc2)c(-c2nc(-c3cccc(C(F)(F)F)c3)no2)c1Cl | 0.81 |
| CCOC(=O)c1c(CC(C)C)csc1NC(=O)CCl | 1.13 |
| CCOC(=O)c1c(C=O)c(C)n(Cc2ccccc2Cl)c1C | 1.34 |
| S=c1[nH]nc(C2CCCCC2)n1Cc1ccccc1 | 1.02 |
| CCCOc1ccc(/C=N/Nc2ccc(C(=O)O)cc2)c(OCCC)c1 | 0.87 |
| CC(C)CCn1c(O)c(N=NC(=O)c2ccco2)c2ccccc21 | 1.03 |
| CCOc1ccc(C2=Nn3c(nnc3-c3ccccc3OC)SC2)cc1 | 0.91 |
| Cn1cc(C2=C(c3ccc(Cl)cc3Cl)C(=O)NC2=O)c2ccccc21 | 0.68 |
| COc1ccc(C(=O)Nc2cc(C)nn2-c2nc3ccccc3[nH]2)c(OC)c1 | 0.91 |
| S=c1[nH]nc(C23CC4CC(CC(C4)C2)C3)n1Cc1ccco1 | 2.45 |
| CCCSc1nc(N2CCOCC2)c2c(c1C#N)CCCC2 | 1.06 |
| c1ccc(Oc2nc3ccccc3n3cccc23)cc1 | 0.86 |
| CN(C)Cc1ccccc1Sc1cccc2ccccc12 | 1.07 |
| CCOP(=S)(OCC)Oc1nc(Cl)c(Cl)cc1Cl | 0.91 |
| Cc1ccc(N(Cc2ccccc2)Cc2ccccc2)cc1 | 1.7 |
| Cn1c(/C=C/N(Cc2ccccc2)c2ccccc2)c([N+](=O)[O-])c(=O)n(C)c1=O | 1.21 |
| Cc1ccnc(SCC(=O)n2c3c(c4ccccc42)CC(C)CC3)n1 (stereo not given) | 0.86 |
| Cc1oc(-c2ccccc2)cc1C(=O)Nc1cccc(/C=C/C(=O)O)c1 | 2.37 |
| CCOC(=O)c1sc(NC(=O)CCN2CC(C)OC(C)C2)c(C(=O)OCC)c1C (stereo not given) | 1.11 |
| Cc1ccc(S(=O)(=O)Nc2ccc(Cl)cc2C(=O)c2ccc(F)cc2)cc1 | 0.97 |
| Cc1ccc(-n2cc(-c3ccccc3)c3c(N4CCOCC4)ncnc32)cc1 | 1.99 |
| CCCCNCC(=O)Nc1sc(C)c(C)c1C(=O)OCC | 2.33 |
| CC1(C)Cc2nc3sc4c(SCC(=O)NC(c5ccccc5)c5ccccc5)ncnc4c3cc2CO1 | 1.48 |
| CCn1c2c(c3cc(OCC(C)C)ccc31)CCCC2=O | 1.09 |
| Cc1ccc2c(c1)-c1nc3ccccc3cc1C2=NC1CCCCC1 | 1.41 |
| O=C(N=C1SCC(=O)N1c1ccccc1Cl)c1ccccc1 | 1.03 |
| Nc1n[nH]c2c1C1(CCCCC1)Cc1ccccc1-2 | 2.69 |

| Compound | PGE2 EC50 with compound [nM] |
| --- | --- |
| CCOc1nc2cccc(C(=O)OC(C)OC(=O)OC3CCCCC3)c2n1Cc1ccc(-c2ccccc2-c2nn[nH]n2)cc1 (stereo not given) | 1.42 |
| COc1ccc(-n2c(-c3ccccc3)nnc2-c2ccc(Cl)cc2)cc1 | 1.23 |
| COC(=O)c1cc(Br)c(=O)n(-c2nccs2)c1 | 2.71 |
| CC1(C)C2CCC1(C)C(OC(=O)CC(=O)O)C2 (stereo not given) | 0.72 |
| O=C(c1ccco1)N(CCC(c1ccccc1)c1ccco1)Cc1ccc(F)cc1 (stereo not given) | 1.11 |
| N#CC1=C(N)SC(N)=C(C#N)C1c1ccoc1 | 2.61 |
| O=S(=O)(c1cccc(C(F)(F)F)c1)N1c2ccccc2-n2cccc2[C@H]1c1cccnc1 | 1.09 |
| COc1cccc2[nH]c3c(N4CCC(C)CC4)ncnc3c12 | 2.38 |
| COC(=O)c1c(NC(=S)NN2CCOCC2)sc2c1CCCC2 | 0.9 |
| Cc1cccc(/C=N/Nc2cc(N3CCOCC3)nc(N3CCOCC3)n2)c1 | 1.08 |
| CCN=C1S/C(=C\c2ccc(O)c(OCC)c2)C(=O)N1CC | 0.81 |
| COc1ccc(OC)c(C(=O)c2coc3ccc(OCC(=O)O)cc23)c1 | 0.98 |
| Cn1c(=O)c2c(SC3CCCC3)nc(C3CC3)nc2n(C)c1=O | 0.61 |
| Cc1ccc(-n2c(SCC(N)=O)nc3c(c2=O)C2(CCCC2)Cc2ccccc2-3)cc1 | 2.78 |
| Cc1ccc(C)n1-c1sc2c(c1C#N)CCCC2 | 2.65 |
| N#CCSc1nc2sc3c(c2c(=O)n1C1CCCCC1)CCCC3 | 0.76 |
| CCOc1ccccc1NC(=O)c1c(Br)cnn1C | 1.08 |
| CCOC(=O)c1c(NC(=O)CN(CC)CC)sc2c1CCN(C(=O)OCC)C2 | 1.34 |
| CCOC(=O)c1c(N)nn(C(=O)c2ccccc2)c1-c1ccccc1 | 2.88 |
| Cc1ccc(C2CC2c2n[nH]c(=S)n2-c2ccc(C)cc2)cc1 (stereo not given) | 1.12 |
| Cc1cc(C)c(S(=O)(=O)N(C2=NCCS2)S(=O)(=O)c2c(C)cc(C)cc2C)c(C)c1 | 0.99 |
| CCOC(=O)c1c(-c2ccc(C)cc2)csc1NC(=O)CCN1CC(C)OC(C)C1 (stereo not given) | 0.68 |
| CC1(C)Cc2nc3nc(SCC(=O)Nc4ccccc4)nc(N)c3cc2CO1 | 1.4 |
| Cc1noc(C)c1CSc1ncnc2sc3c(c12)CCC3 | 0.87 |
